According to the NIST ThermoML archive (doi:10.1016/j.jct.2007.11.011):
± gives the expanded uncertainty stated by the source.

Test: xn = mol fraction of the nth substance listed
Details: Liquid

CCOS(=O)(=O)[O-].CCn1cc[n+](C)c1 [1-ethyl-3-methylimidazolium ethyl sulfate] + CO
Details	mass density [kg/m3]
323.15 K, 5000 kPa, x1 = 0.1977	1024.01 ± 0.5
323.15 K, 5000 kPa, x1 = 0.2432	1052.99 ± 0.54
323.15 K, 5000 kPa, x1 = 0.3026	1084.11 ± 0.61
323.15 K, 5000 kPa, x1 = 0.3887	1118.22 ± 0.7
323.15 K, 5000 kPa, x1 = 0.485	1146.43 ± 0.77
323.15 K, 5000 kPa, x1 = 0.589	1169.35 ± 0.83
323.15 K, 5000 kPa, x1 = 0.7289	1192.7 ± 0.89
323.15 K, 5000 kPa, x1 = 0.8521	1207.44 ± 0.94
323.15 K, 5000 kPa, x1 = 0.9397	1217.06 ± 0.97
323.15 K, 10000 kPa, x1 = 0.04781	868.74 ± 0.83
323.15 K, 10000 kPa, x1 = 0.1026	942.8 ± 0.59
323.15 K, 10000 kPa, x1 = 0.1977	1027.14 ± 0.52
323.15 K, 10000 kPa, x1 = 0.2432	1055.97 ± 0.59
323.15 K, 10000 kPa, x1 = 0.3026	1086.92 ± 0.69
323.15 K, 10000 kPa, x1 = 0.3887	1120.88 ± 0.81
323.15 K, 10000 kPa, x1 = 0.485	1148.93 ± 0.91
323.15 K, 10000 kPa, x1 = 0.589	1171.75 ± 1
323.15 K, 10000 kPa, x1 = 0.7289	1194.99 ± 1.1
323.15 K, 10000 kPa, x1 = 0.8521	1209.67 ± 1.2
323.15 K, 10000 kPa, x1 = 0.9397	1219.28 ± 1.2
323.15 K, 15000 kPa, x1 = 0.04781	872.87 ± 0.94
323.15 K, 15000 kPa, x1 = 0.1026	946.41 ± 0.62
323.15 K, 15000 kPa, x1 = 0.1977	1030.2 ± 0.55
323.15 K, 15000 kPa, x1 = 0.2432	1058.89 ± 0.65
323.15 K, 15000 kPa, x1 = 0.3026	1089.69 ± 0.78
323.15 K, 15000 kPa, x1 = 0.3887	1123.48 ± 0.93
323.15 K, 15000 kPa, x1 = 0.485	1151.4 ± 1.1
323.15 K, 15000 kPa, x1 = 0.589	1174.11 ± 1.2
323.15 K, 15000 kPa, x1 = 0.7289	1197.27 ± 1.4
323.15 K, 15000 kPa, x1 = 0.8521	1211.88 ± 1.4
323.15 K, 15000 kPa, x1 = 0.9397	1221.46 ± 1.5
323.15 K, 20000 kPa, x1 = 0.04781	876.82 ± 1.1
323.15 K, 20000 kPa, x1 = 0.1026	949.87 ± 0.64
323.15 K, 20000 kPa, x1 = 0.1977	1033.16 ± 0.58
323.15 K, 20000 kPa, x1 = 0.2432	1061.72 ± 0.71
323.15 K, 20000 kPa, x1 = 0.3026	1092.38 ± 0.87
323.15 K, 20000 kPa, x1 = 0.3887	1126.02 ± 1.1
323.15 K, 20000 kPa, x1 = 0.485	1153.83 ± 1.3
323.15 K, 20000 kPa, x1 = 0.589	1176.44 ± 1.4
323.15 K, 20000 kPa, x1 = 0.7289	1199.49 ± 1.6
323.15 K, 20000 kPa, x1 = 0.8521	1214.04 ± 1.7
323.15 K, 20000 kPa, x1 = 0.9397	1223.61 ± 1.8
323.15 K, 25000 kPa, x1 = 0.04781	880.61 ± 1.2
323.15 K, 25000 kPa, x1 = 0.1026	953.21 ± 0.67
323.15 K, 25000 kPa, x1 = 0.1977	1036.04 ± 0.62
323.15 K, 25000 kPa, x1 = 0.2432	1064.46 ± 0.78
323.15 K, 25000 kPa, x1 = 0.3026	1094.99 ± 0.98
323.15 K, 25000 kPa, x1 = 0.3887	1128.5 ± 1.2
323.15 K, 25000 kPa, x1 = 0.485	1156.17 ± 1.5
323.15 K, 25000 kPa, x1 = 0.589	1178.7 ± 1.6
323.15 K, 25000 kPa, x1 = 0.7289	1201.68 ± 1.8
323.15 K, 25000 kPa, x1 = 0.8521	1216.15 ± 2
323.15 K, 25000 kPa, x1 = 0.9397	1225.7 ± 2
323.15 K, 30000 kPa, x1 = 0.04781	884.24 ± 1.3
323.15 K, 30000 kPa, x1 = 0.1026	956.44 ± 0.69
323.15 K, 30000 kPa, x1 = 0.1977	1038.84 ± 0.67
323.15 K, 30000 kPa, x1 = 0.2432	1067.16 ± 0.86
323.15 K, 30000 kPa, x1 = 0.3026	1097.52 ± 1.1
323.15 K, 30000 kPa, x1 = 0.3887	1130.9 ± 1.4
323.15 K, 30000 kPa, x1 = 0.485	1158.47 ± 1.7
323.15 K, 30000 kPa, x1 = 0.589	1180.91 ± 1.9
323.15 K, 30000 kPa, x1 = 0.7289	1203.82 ± 2.1
323.15 K, 30000 kPa, x1 = 0.8521	1218.23 ± 2.2
323.15 K, 30000 kPa, x1 = 0.9397	1227.76 ± 2.3
323.15 K, 35000 kPa, x1 = 0.04781	887.77 ± 1.4
323.15 K, 35000 kPa, x1 = 0.1026	959.59 ± 0.7
323.15 K, 35000 kPa, x1 = 0.1977	1041.58 ± 0.71
323.15 K, 35000 kPa, x1 = 0.2432	1069.79 ± 0.94
323.15 K, 35000 kPa, x1 = 0.3026	1100.04 ± 1.2
323.15 K, 35000 kPa, x1 = 0.3887	1133.28 ± 1.6
323.15 K, 35000 kPa, x1 = 0.485	1160.75 ± 1.9
323.15 K, 35000 kPa, x1 = 0.589	1183.11 ± 2.1
323.15 K, 35000 kPa, x1 = 0.7289	1205.91 ± 2.4
323.15 K, 35000 kPa, x1 = 0.8521	1220.28 ± 2.5
323.15 K, 35000 kPa, x1 = 0.9397	1229.79 ± 2.6
333.15 K, 100 kPa, x1 = 0.04781	850.98 ± 0.64
333.15 K, 100 kPa, x1 = 0.1026	926.85 ± 0.53
333.15 K, 100 kPa, x1 = 0.1977	1012.95 ± 0.48
333.15 K, 100 kPa, x1 = 0.2432	1042.28 ± 0.5
333.15 K, 100 kPa, x1 = 0.3026	1073.72 ± 0.54
333.15 K, 100 kPa, x1 = 0.3887	1108.15 ± 0.59
333.15 K, 100 kPa, x1 = 0.485	1136.7 ± 0.63
333.15 K, 100 kPa, x1 = 0.589	1159.94 ± 0.66
333.15 K, 100 kPa, x1 = 0.7289	1183.49 ± 0.7
333.15 K, 100 kPa, x1 = 0.8521	1198.51 ± 0.73
333.15 K, 100 kPa, x1 = 0.9397	1207.93 ± 0.75
333.15 K, 2500 kPa, x1 = 0.04781	853.34 ± 0.69
